Laboratory results from patent US12391657B2, “Small molecules that bind and/or modulate differentforms of tau oligomers” (The Board of Regents of the University of Texas System, priority 2019, dated 2025).
Entries after “also recorded” stand apart in the source; their conditions may differ.

What was measured:
primary cortical neurons [1] = assay: MTT viability of primary cortical neurons exposed to Aβ oligomers pre-incubated with compound; assay type: cell-based, Htau mice; conditions: 0.5 μM Aβ oligomers, 5 μM curcumin derivatives
Description: Aβ oligomers (AβO) were prepared as previously described (Lasagna-Reeves, Castillo-Carranza et al. 2010) by dissolving 0.3 mg of Aβ pellet in 200 μL of hexafluoroisopropanol (HFIP) and incubating for 10-20 min at room temperature. The resulting solution was added to 700 μL of ddH2O in a siliconized Eppendorf tube with holes placed on top of the cap to allow the slow evaporation of HFIP. The samples were then stirred at 500 rpm using a Teflon-coated micro stir bar for 48 hours at room temperature in the fume hood.
Compounds were dissolved in ETOH 75%/DMSO (5:1) at a final concentration of 5 mM and diluted in 1× PBS or ddH2O for incubation or toxicity assay (final concentration 5 μM). Aβ oligomers in the presence of the small molecules and controls were incubated on an orbital shaker, without stirring, for 16 hours under oligomerization conditions as previously described (Lo Cascio and Kayed 2018).
(§1) Human neuroblastoma SH-SY5Y cells were maintained in Dulbecco's modified Eagle's medium (DMEM) and grown to confluence in 96-well plates. […] Cells viability was corrected by the vehicle background. All measurements were performed in triplicate. The cytotoxic effect was determined using 3-(4,5-dimethylthiazol-2-yl)-2,5-diphenyltetrazolium bromide (MTT) assay for assessing cell viability following manufacturer's instructions. Optical density (OD) was measured at 490 nm with POLARstar OMEGA plate reader (BMG Labtechnologies). Cell viability was calculated as the percentage of the OD value of treated cells compared with untreated controls, according to the following equation: Viability=(OD SAMPLE/OD CONTROL)×100. Statistical analysis was based on one-way analysis of variance (ANOVA), performed using GraphPad Prism 6.01.
(§2) Primary cortical neurons from transgenic mice expressing human full-length tau were prepared and maintained as described previously (Beaudoin, Lee et al. 2012). Briefly, cortical neurons were isolated from embryos at embryonic day 16-18 using Accutase solution (Sigma). Dissociated neurons were plated at a density of […] in 96-well plates containing high glucose Dulbecco's Modified Eagle Medium (DMEM, Corning) supplemented with 2% B27 (Gibco), 10,000 units/mL penicillin, 10,000 μg/mL streptomycin , and 25 μg/mL Amphotericin B (Gibco). After 2 hours, plating medium was removed from cells and replaced with Neurobasal medium (Gibco) plus 2% B27, […] (Hyclone), 10,000 units/mL, 10,000 μg/mL streptomycin, and 25 μg/mL Amphotericin B supplement. Cells were grown for 10-12 days in vitro before experiments and 50% of media changes were performed every 3 days. […] The MTT viability assay was performed as previously described (Cell Toxicity Assay—MTT).

[2] = biological target: T1, recombinant tau oligomers (TauO) (Homo sapiens, UniProt P10636); assay: Atomic force microscopy of recombinant tau oligomers after compound treatment; conditions: 5 μM of curcumin derivatives
T1 construct: made in house
T1 sequence (P10636 1-441 isoform P10636-8): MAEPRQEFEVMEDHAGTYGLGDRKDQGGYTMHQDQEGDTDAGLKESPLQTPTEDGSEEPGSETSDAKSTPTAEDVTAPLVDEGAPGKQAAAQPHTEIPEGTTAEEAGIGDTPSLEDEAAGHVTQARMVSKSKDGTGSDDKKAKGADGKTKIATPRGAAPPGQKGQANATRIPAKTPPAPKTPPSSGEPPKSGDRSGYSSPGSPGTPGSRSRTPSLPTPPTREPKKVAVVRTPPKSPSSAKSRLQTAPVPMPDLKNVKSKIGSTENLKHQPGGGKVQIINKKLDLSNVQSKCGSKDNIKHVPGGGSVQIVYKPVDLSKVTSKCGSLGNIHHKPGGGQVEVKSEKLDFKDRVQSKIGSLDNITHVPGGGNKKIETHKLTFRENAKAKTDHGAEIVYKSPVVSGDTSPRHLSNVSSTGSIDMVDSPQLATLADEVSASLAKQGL
Description: Tau oligomers were characterized by AFM as previously described (Lasagna-Reeves, (2010)0. Briefly, samples were prepared by adding 10 μl tau oligomers in the absence and presence of AC on freshly-cleaved mica and were allowed to adsorb to the surface. Mica were then washed three times with distilled water to remove unbound protein and impurities followed by air-drying. Samples were then imaged with Multimode 8 AFM machine (Veeco, CA) using a non-contact tapping method (ScanAsyst-Air).
(§3) Compounds were dissolved in ETOH 75%/DMSO (5:1) at a final concentration of 5 mM and diluted in 1× PBS or ddH2O for incubation or toxicity assay (final concentration 5 μM). Tau oligomers in the presence of the small molecules and controls were incubated on an orbital shaker, without stirring, for 16 hours under oligomerization conditions as previously described (Lo Cascio and Kayed 2018).
(§4) Tau oligomers were characterized by AFM as previously described (Lasagna-Reeves, Castillo-Carranza et al. 2010). Briefly, samples were prepared by adding 10 μl tau oligomers in the absence or presence of AC on freshly-cleaved mica and were allowed to adsorb to the surface. Mica were then washed three times with distilled water to remove unbound protein and impurities followed by air-drying. Samples were then imaged with Multimode 8 AFM machine (Veeco, CA) using a non-contact tapping method (ScanAsyst-Air).

primary cortical neurons [3] = assay: MTT viability of primary cortical neurons exposed to TauO pre-incubated with compound; assay type: cell-based, Htau mice; conditions: 0.5 μM tau oligomers, 5 μM curcumin derivatives, 2 hours
Description: as §3, §1, §2

[4] = in vivo; cited from earlier work
[5] = cited from earlier work
primary cortical neurons [6] = assay: MTT viability of primary cortical neurons exposed to PSP BDTOs with and without compound; assay type: cell-based, Htau mice; conditions: 0.5 μM BDTOs, CL3 final concentration 5 μM
Description: as §1
(§5) Compounds were dissolved in ETOH 75%/DMSO (5:1) at a final concentration of 5 mM and diluted in 1× PBS or ddH2O for incubation or toxicity assay (final concentration 5 μM). Tau oligomers in the presence of the small molecules and controls were incubated on an orbital shaker, without stirring, for 16 hours under oligomerization conditions.
(§6) Primary cortical neurons from transgenic mice expressing human full-length tau were prepared and maintained as described previously (Beaudoin, Lee et al. 2012). […]

primary cortical neurons [7] = assay: MTT viability of primary cortical neurons exposed to AD BDTOs with and without compound; assay type: cell-based, Htau mice; conditions: 0.5 μM BDTOs, CL3 final concentration 5 μM
Description: as §1, §5, §6

PSP BDTOs = assay: Atomic force microscopy of PSP BDTOs with and without compound; conditions: with CL3
Description: as §4, §5
(§7) Immunoprecipitated tau oligomers were characterized using various biochemical methods as previously described (Lasagna-Reeves 2012, Gerson, Castillo-Carranza et al. 2016). AFM was performed to visualize the morphologies of oligomeric assemblies of isolated proteins. Isolated oligomers (5 μL) were injected into an LC-6AD Shimadzu HPLC system fitted with a TSK-GEL G3000 SWXL (30 cm×7.8 mm) column, Supelco-808541 to determine the size of the isolated oligomers. PBS (pH 7.4) was used as the mobile phase with a flow rate of 0.5 mL/min. […]

AD BDTOs = assay: Atomic force microscopy of AD BDTOs with and without compound; conditions: with CL3
Description: as §4, §5, §7

primary cortical neurons [8] = assay: BDTOs with and without CL3 taken up by primary cortical neurons, Western blot of cytoplasmic fraction; assay type: cell-based; conditions: 0.5 μM DLB, AD and PSP BDTOs, 5 μM CL3, 24 hrs
Description: FIG. 15. Disease-relevant brain-derived tau oligomers with and without CL3 taken up by primary cortical neurons. Primary cortical neurons were exposed to 0.5 μM DLB, AD and PSP BDTOs in the presence and absence of 5 μM CL3 for 24 hrs. Tau levels are evaluated in the cytoplasmic fraction using the generic tau antibody, Total Tau. […] PSP show to more efficiently decrease monomeric tau in the cytoplasmic fraction as compared to DLB and AD. […] Data were compared by one-way analysis of variance (ANOVA) followed by Dunnett's multiple comparison test: Ctrl vs DLB, DLB+CL3, AD, AD+CL3, PSP, PSP+CL3: **p<0.01; ***p<0.001; ****p<0.0001. Bars and error bars represent the mean and standard deviation.

CC(=O)/C=C/c1ccc(C)cc1 [HemiC9]
viability of neuronal culture exposed to AβO pre-incubated with compound (primary cortical neurons [1]): no changes in cells viability as compared to AβO alone
morphology and aggregation state of TauO by AFM [2]: converting TauO into much larger aggregates
viability of neuronal culture exposed to TauO pre-incubated with compound (primary cortical neurons [3]): significantly higher cells viability as compared to TauO alone

COc1cc(/C=C/C(=O)COC(=O)/C=C/c2ccc(O)c(OC)c2)ccc1O [Calebin-A]
bioavailability [4]: low bioavailabity
solubility in aqueous media [5]: poor solubity in water

O=C(/C=C/c1ccc(Cl)cc1)COC(=O)/C=C/c1ccc(Cl)cc1 [Cal7]
viability of neuronal culture exposed to AβO pre-incubated with compound (primary cortical neurons [1]): no changes in cells viability as compared to AβO alone
morphology and aggregation state of TauO by AFM [2]: converting TauO into much larger aggregates
viability of neuronal culture exposed to TauO pre-incubated with compound (primary cortical neurons [3]): significantly higher cells viability as compared to TauO alone

COc1cc(/C=C/C(=O)OCC(=O)/C=C/c2ccc(OC)c(OC)c2)ccc1F [Cal9]
viability of neuronal culture exposed to AβO pre-incubated with compound (primary cortical neurons [1]): no changes in cells viability as compared to AβO alone
morphology and aggregation state of TauO by AFM [2]: converting TauO into much larger aggregates
viability of neuronal culture exposed to TauO pre-incubated with compound (primary cortical neurons [3]): significantly higher cells viability as compared to TauO alone

O=C(/C=C/c1ccc(F)cc1)C(=O)/C=C/c1ccc(F)cc1 [CL3]
viability of neuronal culture exposed to AβO pre-incubated with compound (primary cortical neurons [1]): no changes in cells viability as compared to AβO alone
PSP BDTOs-induced toxicity in primary neurons (cell viability) (primary cortical neurons [6]): reduced PSP-derived tau oligomers toxicity; also recorded: able to rescue primary neurons from PSP BDTOs-induced toxicity; also recorded: modulates PSP BDTOs associated neurotoxicity
AD BDTOs-induced toxicity in primary neurons (cell viability) (primary cortical neurons [7]): not be able to modulate and neutralize AD BDTOs-induced toxicity; also recorded: no effect in preventing AD BDTOs-induced toxicity
morphology and aggregation state of PSP BDTOs by AFM (PSP BDTOs): formation of larger tau aggregates
morphology and aggregation state of TauO by AFM [2]: converting TauO into much larger aggregates
morphology and aggregation state of AD BDTOs by AFM (AD BDTOs): no morphological changes were observed
viability of neuronal culture exposed to TauO pre-incubated with compound (primary cortical neurons [3]): significantly higher cells viability as compared to TauO alone
effect of BDTO pretreatment on tau levels in cytoplasmic fraction of primary neurons (primary cortical neurons [8]): differently modulate their aggregation states
